{
  "source": "paper PMC7358525",
  "about": "“Characterization of PF-6142, a Novel, Non-Catecholamine Dopamine Receptor D1 Agonist, in Murine and Nonhuman Primate Models of Dopaminergic Activation” (Frontiers in Pharmacology, 2020)",
  "key": {"[1]": {"tested_on": "ketamine-induced working memory deficits", "assay": "Spatial delayed response (SDR) task in the nonhuman primate", "format": "in vivo, rhesus monkeys", "conditions": "ketamine 0.7-1.7 mg/kg i.m.; baseline 70.63 ± 1.75%", "source_text": "This study was designed to test the hypothesis that PF-6142 would provide significant protection versus the ketamine-induced working memory deficits in nonhuman primates.\nRhesus monkeys were trained to stability on a variable SDR task in a sound-attenuated Wisconsin General Testing Apparatus ([Roberts et al., 2010]). Briefly, subjects observe while the investigator baiting one of two to seven wells with a highly preferred food reward and then covers all the wells with identical square plaques. An opaque screen is then lowered for one of five variable delays, which are pseudorandomized across trials within a session. Thus, delays are defined as 0–4 N, where “N” is a value that is animal dependent and ranges from 1 to 10 s depending upon the difficulty level of the task at which an animal reaches the criterion of stable performance. At the end of the delay period, the opaque screen is raised, and the animal must select the well that had been baited to obtain a reward. Each test session consists of 20 trials wherein both the baited well and delay length are pseudorandomized across trials. Before study initiation, all subjects were required to reach stability over a period of 10 consecutive test sessions, where stability was defined as an average of 65–75% correct. Stability was attained by varying the number of wells and the delay value for each animal. Subjects were originally trained on a two-well board with an N value of 1. […] Once stability was attained for a given number of wells and N value, that combination was kept constant throughout the course of the study ([Roberts et al., 2010]). The range of stable performance for the 10 subjects was two to five wells and an N value of 1–7 s (median, four-well testing board, N = 5 s). Data were transformed using logarithmic function [log(x+5)] to improve normality and analyzed using ANOVA.\nSubjects received pretreatment with vehicle (sterile saline solution) or PF-6142 (0.0015, 0.015, 0.15 mg/kg, s.c.) 4 h before cognitive testing. They then received an intramuscular injection of either vehicle (sterile saline) or ketamine (0.7–1.7 mg/kg; Fort Dodge Co.) 0.25 h before cognitive testing. […] Thus, for the present study, one monkey received 0.7 mg/kg, seven monkeys received 1.0 mg/kg, and two monkeys received 1.7 mg/kg of ketamine. The vehicle/PF-6142 and vehicle/ketamine treatments were assigned using a randomized Latin square design with a total of eight conditions. Except for the vehicle/vehicle condition, there was a minimum 2-week washout period between all acute challenges during which time animals were required to “restabilize” to baseline performance levels, which was defined as at least three consecutive testing sessions wherein cognitive performance ranged between 65% and 75% correct."}, "[2]": {"tested_on": "ketamine-induced working memory deficits", "assay": "Ketamine-disrupted radial arm maze (RAM)", "format": "in vivo, rat", "conditions": "ketamine 10 mg/kg s.c.", "source_text": "Two cohorts of adult male Long-Evans rats (N=30 each) were trained in a spatial working memory task on an eight-arm RAM, (Pathfinder Maze System, Lafayette Instrument Co., Lafayette, IN), using a procedure adapted from [Ward et al. (1990)] and described in detail in [Strick et al. (2011)]. Briefly, rats were food-restricted to provide motivation to perform the RAM task. The task requires that the animals enter each arm to retrieve a reinforcement food pellets, using spatial cues in the room to remember which arms of the maze they have previously entered. Rats were individually placed on the maze and allowed to navigate until all eight arms were entered and the pellets were consumed or until 30 choices were made, or until 5 min had elapsed. Entry into an arm previously entered was counted as an error. […] Training continued until all animals had reached the training criterion, defined as two or fewer errors on two consecutive days. […] Performance on the maze was evaluated 30 min later by an observer that was blinded to treatments.\nThe R 3.0.1 statistical software was used to compare the error rate data. The effects of treatment and the interaction on the error rate were assessed using a one-way mixed model ANOVA using generalized least squares method from lme4 library. […]"}},
  "note": "Where a name gives a salt, the structure may show the parent alone.",
  "data": [
    {"smiles": "CNC1(c2ccccc2Cl)CCCCC1=O", "note": "(centres unmarked) [ketamine, ketamine hydrochloride, reference compound]", "values": [
      {"measurement": "percent correct on the SDR task", "setting": "[1]", "value": "28.75 ± 2.45", "unit": "%"},
      {"measurement": "error rate (errors/choices) in RAM", "setting": "[2]", "value": "robust increase in error rate"}
    ]}
  ]
}
